Measured values taken from publication PMC5634495 (Scientific Reports, 2017).

Tests used:
[1] = system: locomotor activity of mice; conditions: mouse, in vivo
α4β2 nAChR = α4β2 nAChR (Homo sapiens, UniProt P17787+P43681); assay: cell-based
[2] = system: nAChR-mediated pharyngeal pumping in C. elegans (nAChR EAT-2); design: species or system Caenorhabditis elegans; conditions: in vivo
[3] = molecular target: T1, acetylcholine binding protein derived from Lymnaea stagnalis (L-AChBP) (Lymnaea stagnalis, UniProt P58154 20-229); assay: SPR; conditions: both partners purified
T1 construct: also called Synthetic Lymnaea stagnalis AChBP
T1 sequence (P58154 20-229): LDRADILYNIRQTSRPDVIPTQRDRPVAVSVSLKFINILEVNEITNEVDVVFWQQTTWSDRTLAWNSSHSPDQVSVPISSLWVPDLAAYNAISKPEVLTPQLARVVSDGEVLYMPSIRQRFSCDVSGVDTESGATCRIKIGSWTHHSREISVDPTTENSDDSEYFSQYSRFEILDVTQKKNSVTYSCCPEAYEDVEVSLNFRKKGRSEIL

Chain of α4β2 nAChR (P43681 29-627 limits assumed): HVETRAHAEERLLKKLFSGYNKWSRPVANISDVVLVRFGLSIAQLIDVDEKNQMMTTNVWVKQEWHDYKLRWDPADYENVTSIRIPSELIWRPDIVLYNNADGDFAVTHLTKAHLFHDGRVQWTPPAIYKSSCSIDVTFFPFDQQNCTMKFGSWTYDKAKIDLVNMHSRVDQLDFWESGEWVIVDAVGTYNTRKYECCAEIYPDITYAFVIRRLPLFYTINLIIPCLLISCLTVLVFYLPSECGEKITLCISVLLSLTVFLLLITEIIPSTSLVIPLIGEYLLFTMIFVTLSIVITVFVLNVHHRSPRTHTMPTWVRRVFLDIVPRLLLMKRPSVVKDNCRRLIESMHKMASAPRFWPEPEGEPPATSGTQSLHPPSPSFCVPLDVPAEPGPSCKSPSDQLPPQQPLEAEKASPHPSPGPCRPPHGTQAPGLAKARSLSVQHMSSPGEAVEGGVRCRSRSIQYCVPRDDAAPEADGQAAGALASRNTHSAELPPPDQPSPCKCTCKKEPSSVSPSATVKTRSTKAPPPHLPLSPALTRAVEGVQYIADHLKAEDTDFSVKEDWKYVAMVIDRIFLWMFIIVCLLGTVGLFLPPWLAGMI
Chain of α4β2 nAChR (P17787 26-502 limits assumed): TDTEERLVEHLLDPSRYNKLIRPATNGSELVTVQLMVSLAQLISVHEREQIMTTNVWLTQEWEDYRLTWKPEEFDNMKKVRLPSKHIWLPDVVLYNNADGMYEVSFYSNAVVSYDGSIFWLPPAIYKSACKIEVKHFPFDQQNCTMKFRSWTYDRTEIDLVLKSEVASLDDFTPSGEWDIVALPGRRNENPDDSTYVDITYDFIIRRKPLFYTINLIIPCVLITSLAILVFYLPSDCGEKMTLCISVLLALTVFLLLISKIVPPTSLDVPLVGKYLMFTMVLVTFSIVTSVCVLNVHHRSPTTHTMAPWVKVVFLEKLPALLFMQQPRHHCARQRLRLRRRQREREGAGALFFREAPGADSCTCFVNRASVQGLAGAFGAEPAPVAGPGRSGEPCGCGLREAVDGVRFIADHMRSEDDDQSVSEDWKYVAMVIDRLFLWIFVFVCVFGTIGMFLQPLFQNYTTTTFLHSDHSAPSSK

Molecule | locomotor activity in novel-environment behaviour test (in words) [1] | IC50 (α4β2 nAChR) | average pharyngeal pumping frequency (in words) [2] | worms in which pharyngeal pumping was absent [2] | binding result [3]
CC[C@H](C)[C@H](NC(=O)[C@H](CC(=O)O)NC(=O)[C@H](CS)NC(=O)[C@H](CO)NC(=O)[C@@H](NC(=O)CNC(=O)[C@H](CC(C)C)NC(=O)[C@H](CCCNC(=N)N)NC(=O)[C@H](C)NC(=O)[C@H](CC(N)=O)NC(=O)[C@H](CCC(=O)O)NC(=O)[C@@H]1CCCN1C(=O)[C@H](CCSC)NC(=O)[C@H](Cc1c[nH]c2ccccc12)NC(=O)[C@@H](NC(=O)[C@@H](NC(=O)[C@@H](N)Cc1ccc(O)cc1)[C@@H](C)O)[C@@H](C)CC)[C@@H](C)O)C(=O)N[C@@H](Cc1ccccc1)C(=O)N[C@H](C(=O)N[C@@H](CC(N)=O)C(=O)N[C@@H](CO)C(=O)N[C@@H](CCCNC(=N)N)C(=O)NCC(=O)N[C@@H](CCCCN)C(=O)N[C@@H](CCCNC(=N)N)C(=O)N[C@@H](C)C(=O)N[C@@H](CO)C(=O)N[C@@H](CCCCN)C(=O)NCC(=O)O)[C@@H](C)O [RV-183A] | increased locomotor activity | 465 to 2620 µM | significantly reduced | six out of seven | –
CC[C@H](C)[C@H](NC(=O)[C@H](CC(=O)O)NC(=O)[C@H](CS)NC(=O)[C@H](CO)NC(=O)[C@@H](NC(=O)CNC(=O)[C@H](CC(C)C)NC(=O)[C@H](CCCNC(=N)N)NC(=O)[C@@H]1CCCN1C(=O)[C@H](CC(N)=O)NC(=O)[C@H](CCC(=O)O)NC(=O)[C@@H]1CCCN1C(=O)[C@H](CCSC)NC(=O)[C@H](Cc1c[nH]c2ccccc12)NC(=O)[C@@H](NC(=O)[C@@H](NC(=O)[C@@H](N)Cc1ccc(O)cc1)[C@@H](C)O)[C@@H](C)CC)[C@@H](C)O)C(=O)N[C@@H](Cc1ccccc1)C(=O)N[C@H](C(=O)N[C@@H](CC(N)=O)C(=O)N[C@@H](CO)C(=O)N[C@@H](CCCNC(=N)N)C(=O)NCC(=O)N[C@@H](CCCCN)C(=O)N[C@@H](CCCNC(=N)N)C(=O)N[C@@H](C)C(=O)N[C@@H](CO)C(=O)N[C@@H](CCCCN)C(=O)NCC(=O)O)[C@@H](C)O [RV-183P] | increased locomotor activity | 185 to 314 µM | – | – | –
GSEPKWYRTKDRASPGSNFTITLMGRCNI [Scrambled, reference compound] | No difference | – | – | – | –
YTIWMPENPRLGTSCDIFTNSRGKRASKG [RV-183P] | – | – | – | – | binds
YTIWMPENLRLGTSCDIFTNSRGKRASKG [RV-183L] | – | – | – | – | binds
